Test system: hPSC lines P11032, SA181 and P11012
Test: DE differentiation of 3 hPSC lines with 5-aza-2-deoxycytidine or 5-azacytidine, qRT-PCR marker expression (Example 5)
Assay type: cell-based, human
Conditions: 1 μM on day 2-3
Protocol: Following the basic protocols A (hPSC lines P11032, and SA181) or B (hPSC line P11012), cells derived from 3 different hPSC lines were treated with either 10 nM 5-aza-2-deoxycytidine or 1 μM 5-azacytidine on day 2-3 during the hPS differentiation into definitive endodem.
For analysis of mRNA expression, hESC- and hiPSC-derived DE-cells were harvested on day 7 of the protocol and gene expression was analysed using qRT-PCR, normalised to the house-keeping gene CREBBP, and the results presented as relative quantification normalised to a calibrator.

## Nc1ncn([C@@H]2O[C@H](CO)[C@@H](O)[C@H]2O)c(=O)n1 [5-azacytidine]
Day 7
  mRNA expression of the DE marker Cxcr4: No significant changes
  mRNA expression of the DE marker Sox17: No significant changes
Day 7, vs without treatment
  Nanog mRNA: significantly decreased
  Oct4 mRNA: significantly decreased
Lines give heterogeneous DE if untreated
  Homogeneity of derived DE population: allowed derivation of a homogeneous DE population

— US10202579B2, “Methods for producing mammalian pluripotent stem cell-derived endodermal cells” (Takara Bio Europe AB, priority 2012, dated 2019)
